Marks after values point to notes of the source that are not given here.

Here are results for 15 compounds from patent US20220289657A1, “COMPOSITION FOR PREVENTING OR TREATING BACTERIAL INFECTIOUS DISEASE COMPRISING 4-GINGEROL DERIVATIVE COMPOUND AS ACTIVE INGREDIENT” (KOREA UNIVERSITY RESEARCH AND BUSINESS FOUNDATION, SEJONG …, priority 2019, published 2022).

For this assay, the target named is T1, RhlR (Pseudomonas aeruginosa, UniProt P54292).
T1 construct: expressed in transfected cells; host or cells: E. coli sdiA variant co-transformed with pJN105R and pSC11 (RhlA::lacZ)
T1 sequence (P54292 whole entry): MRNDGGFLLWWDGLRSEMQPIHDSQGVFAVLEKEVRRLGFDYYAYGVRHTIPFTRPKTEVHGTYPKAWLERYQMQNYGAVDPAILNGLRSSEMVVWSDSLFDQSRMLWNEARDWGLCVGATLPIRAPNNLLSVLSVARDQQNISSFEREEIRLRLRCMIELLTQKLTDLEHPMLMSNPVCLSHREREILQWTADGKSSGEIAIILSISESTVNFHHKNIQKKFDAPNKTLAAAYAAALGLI
The assay can be described thus: cell-based. To be noted: footnotes not given; for activity at 100 µM: read-out: Relative RhlR activity Agonism, Table 2, matches the 100 column of Table 3; for remaining activity at 100 µM: read-out: Relative RhlR activity Antagonism, Table 2; for remaining activity at 100 µM / Relative RhlR activity Antagonism: 100 μM per Table 3, lower = stronger antagonism; for Relative RhlR activity Antagonism: Table 2. How it is done:
Escherichia coli (E. coli) DH5a includes LuxR homolog SdiA detecting endogenous AHL synthesized by other microbial species, particularly, BHL.
For RhlR reporter strain analysis, the present invention used pJN105R (RhlR expression plasmid), anspSC11 (RhlA::lacZ fusion plasmid) and an sdiA variant co-transformed with the two plasmids. 1% of an overnight-cultured reporter strain (OD 595 nm=1.0) supplemented with 10 μg/mL gentamicin and 50 μg/mL ampicillin was cultured in a Luria-Bertani (LB) medium (Difco, Detroit, Mich., USA) with a positive control or a compound (0-1000 μM) and BHL (0-10 μM) (Sigma-Aldrich) at 37° C. for 2 hours. 0.4% arabinose (Sigma-Aldrich) was reacted with the resulting product at 37° C. for 1.5 hours. β-galactosidase activity was evaluated using a Tropix plus kit (Applied Biosystems, CA, USA), and OD 595 nm and luminescence were measured using a VICTOR x5 multimode plate reader (PerkinElmer, Waltham, Mass., USA). Relative RhlR activity was quantified by measuring luminescence at OD 595 nm. In addition, for LasR reporter strain analysis, the present invention used pJN105L (LasR expression plasmid) and pSC11 (lasI::lacZ fusion plasmid), E. coli DH5a co-transformed with the two plasmids, and OdDHL (Sigma-Aldrich).

As to `CCCCC(O)C#Cc1ccc(F)c(F)c1` (racemic) [Compound 34a, 1-(3,4-Difluorophenyl)hept-1-yn-3-ol], the activity at 100 µM amounted to 4% and the remaining activity at 100 µM was 71%.

Turning to `CCCCCC(O)C#Cc1ccc(F)c(F)c1` (racemic) [Compound 35a, 1-(3,4-Difluorophenyl)oct-1-yn-3-ol], the activity at 100 µM came to 3% and the remaining activity at 100 µM was 74%.

In the case of `CCCC(O)CC(=O)CCc1ccc(O)c(OC)c1` (stereo not shown) [Compound 2, 5-Hydroxy-1-(4-hydroxy-3-methoxyphenyl)octan-3-one], the “Relative RhlR activity Antagonism” value is listed as 54** %, the activity at 100 µM stood at 3% and the remaining activity at 100 µM turned out to be 54%.

With `CCCCC(O)CC(=O)CCc1ccc(O)c(OC)c1` (stereo not shown) [Compound 3, 5-Hydroxy-1-(4-hydroxy-3-methoxyphenyl)nonan-3-one], the activity at 100 µM is 2% and the remaining activity at 100 µM was determined as 62%.

As to `CCCCCCC(O)CC(=O)CCc1ccc(O)c(OC)c1` (stereo not shown) [Compound 5, 5-Hydroxy-1-(4-hydroxy-3-methoxyphenyl)undecan-3-one], the activity at 100 µM is 3% and the remaining activity at 100 µM came out at 83%.

As for `CCCCCCCC(O)CC(=O)CCc1ccc(O)c(OC)c1` (stereo not shown) [Compound 6, 5-Hydroxy-1-(4-hydroxy-3-methoxyphenyl)dodecan-3-one], the activity at 100 µM stood at 2% and the remaining activity at 100 µM was 90%.

Take `CCCC(O)CC(=O)/C=C/c1ccccc1` (stereo not shown) [Compound 11b, (E)-5-Hydroxy-1-phenyloct-1-en-3-one]: the “Relative RhlR activity Antagonism” value is recorded as 93* %, the activity at 100 µM was determined as 4% and the remaining activity at 100 µM was 93%.

Take `CCCC(O)CC(=O)/C=C/c1cccc(O)c1` (stereo not shown) [Compound 11e, (E)-5-Hydroxy-1-(3-hydroxyphenyl)oct-1-en-3-one]: the “Relative RhlR activity Antagonism” value is reported as 78** %, the activity at 100 µM is 2% and the remaining activity at 100 µM was determined as 78%.

Regarding `CCCC(O)CC(=O)/C=C/c1ccc(F)cc1` (stereo not shown) [Compound 11g, (E)-1-(4-Fluorophenyl)-5-hydroxyoct-1-en-3-one], the “Relative RhlR activity Antagonism” value is reported as 33** %, the activity at 100 µM worked out at 1% and the remaining activity at 100 µM stood at 33%.

With `CCCC(O)CC(=O)/C=C/c1ccc(Cl)cc1` (stereo not shown) [Compound 11h, (E)-1-(4-Chlorophenyl)-5-hydroxyoct-1-en-3-one], the “Relative RhlR activity Antagonism” value is 64** %, the activity at 100 µM was 1% and the remaining activity at 100 µM was found to be 64%.

`CCCC(O)CC(=O)/C=C/c1ccccc1C` (stereo not shown) [Compound 11i, (E)-5-Hydroxy-1-(o-tolyl)oct-1-en-3-one]: the “Relative RhlR activity Antagonism” value is recorded as 65** %, the activity at 100 µM was 2% and the remaining activity at 100 µM came to 65%.

For the compound `CCCC(O)CC(=O)/C=C/c1ccc(N(C)C)cc1` (stereo not shown) [Compound 11j, (E)-1-(4-(Dimethylamino)phenyl)-5-hydroxyoct-1-en-3-one], the “Relative RhlR activity Antagonism” value is listed as 53** %, the activity at 100 µM was found to be 2% and the remaining activity at 100 µM came to 53%.

With `CCCC(O)CC(=O)/C=C/c1ccc(OC)c(OC)c1` (stereo not shown) [Compound 11l, (E)-1-(3,4-Dimethoxyphenyl)-5-hydroxyoct-1-en-3-one], the activity at 100 µM worked out at 1% and the remaining activity at 100 µM was 69%.

As for `CCCC(O)CC(=O)/C=C/c1ccc(O)c(F)c1` (stereo not shown) [Compound 11m, (E)-1-(3-Fluoro-4-hydroxyphenyl)-5-hydroxyoct-1-en-3-one], the activity at 100 µM came to 2% and the remaining activity at 100 µM was found to be 60%.

Turning to `CCCC(O)CC(=O)/C=C/c1ccc(O)c(OCC)c1` (stereo not shown) [Compound 11n, (E)-1-(3-Ethoxy-4-hydroxyphenyl)-5-hydroxyoct-1-en-3-one], the activity at 100 µM came out at 1% and the remaining activity at 100 µM was 91%.
